Source: patent publication US20250009743A1, “METHODS OF TREATING CANCERS USING STING AGONISTS” (Dana-Farber Cancer Institute, Inc., priority 2021, published 2025)

Key:
DF86 PDX = assay: DF86 ovarian PDX with human bone marrow monocytes in NSG mice; format: in vivo
Excerpt: (§1) For the PDX in vivo experiments, about 3×10^6 PDX tumor cells were mixed with 3×10^6 human bone marrow mononuclear cells in serum-free DMEM/F12 medium containing 50% Matrigel (CAT #70001, […] Technology) and intraperitoneally transplanted into NOD/SCID IL2Rgnull mice (NSG, The Jackson Laboratory). About three weeks after injection, PDX-bearing mice were equivalently divided into 4 groups according to the luminescent intensity and treated with vehicle control, olaparib, MSA-2 and olaparib in combination with MSA-2 using the same dosing and schedule that have been described above. Ascites was harvested for analysis after three weeks' treatment.
Tumors were chopped and digested in collagenase buffer as described previously (Ding et al., 2018 Cell Rep 25, 2972-2980.e2975). Single cell suspensions of tumor and ascites were obtained by filtering through 70 um strainers and treated with 1× eBioscience RBC lysis buffer (Thermo Fisher) before staining. Single cells suspensions were incubated with LIVE/DEAD Fixable Aqua Dead Cell Stain (Life Technologies, Cat #L34965) for 30 min and then blocked with anti-CD16/32 (Biolegend, clone 93) for 20 min on ice. Samples were then incubated with appropriate antibodies for 30 min on ice. Foxp3 staining buffer set (eBioscience, Cat #00-5523-00) was applied for intracellular markers staining. For the intracellular cytokine analysis, cells were stimulated with Leukocyte Activation Cocktail (BD Biosciences, Cat #550583) at 37° C. for 4-6 hours prior to FACS staining. The following antibodies were used in this study: antibodies were purchased from BioLegend unless otherwise indicated: CD45 (clone 30-F11), CD3ε (clone 145-2C11), CD4 (clone RM4-5), CD8 (clone 53-6.7), CD44 (clone IM7), CD62L (MEL-14), CD25 (PC61), IFNγ (clone XMG1.2), TNFα (clone MP6-XT22), CD11b (clone M1/70), CD11c […], F4/80 (clone BM8), Ly-6C (clone HK1.4), Ly-6G (clone 1A8), MHC-II (clone M5/114.15.2), CD80 (clone 16-10A1), CD86 (clone GL-1), MHC-I (clone KH114), FoxP3 (clone FJK-16 s; eBioscience), Phospho-IRF-3 (Ser396) (clone D601M, Cell signaling technology) and Phospho-TBK1/NAK (Ser172) (clone D52C2, Cell signaling technology). The following human antibodies were used in this study: cell surface markers includes CD45 (clone H130), CD11b (clone M1/70), CD11c (clone Bu15), CD80 (clone 2D10), CD86 (clone IT2.2), CD14 (clone 63D3), CD15 […], HLA-DR (clone L243) and HLA-A,B,C (clone W6/32); intracellular markers include CD163 (clone GHI/61), CD68 (clone Y1/82A) and CD206 (clone 15-2). Flow cytometry was performed on an LSRII (BD Biosciences) or Fortessa HTS (BD Biosciences) at DFCI Flow Cytometry Core, and all the data were analyzed using FlowJo software.

PE tumors = assay: PE (exon19del/T790M EGFR, Trp53 loss) tumor growth in FVB mice; format: in vivo, mouse; conditions: start at about 400 mm^3; osimertinib 10 mg/kg daily by gavage; MSA-2 20 mg/kg i.p. every three days; FIG. 30A
DF101 PDX = assay: DF101 ovarian PDX in NSG mice; format: in vivo, human
Excerpt: as §1
Tumors were chopped and digested in collagenase buffer as described previously (Ding et al., 2018 Cell Rep 25, 2972-2980.e2975). Single cell suspensions of tumor and ascites were obtained by filtering through 70 um strainers and treated with 1× eBioscience RBC lysis buffer (Thermo Fisher) before staining. Single cells suspensions were incubated with LIVE/DEAD Fixable Aqua Dead Cell Stain (Life Technologies, Cat #L34965) for 30 min and then blocked with anti-CD16/32 (Biolegend, clone 93) for 20 min on ice. Samples were then incubated with appropriate antibodies for 30 min on ice. Foxp3 staining buffer set (eBioscience, Cat #00-5523-00) was applied for intracellular markers staining. For the intracellular cytokine analysis, cells were stimulated with Leukocyte Activation Cocktail (BD Biosciences, Cat #550583) at 37° C. for 4-6 hours prior to FACS staining. […] Flow cytometry was performed on an LSRII (BD Biosciences) or Fortessa HTS (BD Biosciences) at DFCI Flow Cytometry Core, and all the data were analyzed using FlowJo software.

[1] = test system: BP-sgControl and BP-sgSTING cells; assay: CellTiter-Glo cell viability of BP-sgControl and BP-sgSTING cells; format: cell-based, mouse; conditions: effect of loss of tumor cell-intrinsic STING; three days; FIG. 11B
Method: Tumor cells were seeded in 96-well plates at a density of 5000 cells per well and allowed to adhere overnight. Cells were then treated for 72 hours with indicated drugs at the concentrations shown. Cell viability was measured using CellTiter-Glo® 2.0 Cell Viability Assay (Promega, #G9242) according to the manufacturer's instruction. Growth inhibition was calculated by comparing the […] of drug-treated wells to that of untreated controls 1 set at 100%. Dose response curves and IC50 values were generated using a non-linear regression model in GraphPad Prism 8.

PBM tumor cells = assay: Cytokine array of medium of PBM cells; format: cell-based, mouse; conditions: olaparib-treated PBM cells; FIG. 19F
Method: The PBM tumor cells were cultured in 6-well plate for 24 hrs and treated with olaparib or vehicle control. Drug was removed after 24 hrs' treatment, and cells were cultured in fresh medium for another 48 hrs. Cell culture supernatants were obtained by centrifugation at 1,500 g for 5 min at 4° C. to remove all the debris and cells then subjected to Cytokine array analysis (ARY028, R&D system) according to manufactories introduction. Briefly, the cell culture supernatants were mixed with a cocktail of biotinylated detection antibodies, and then incubated with the Mouse Cytokine Array. The array was then incubated with streptavidin-horseradish peroxidase followed by chemiluminescent detection. Array images were analyzed using the Image J software.

BP tumor cells = assay: Pro-inflammatory cytokine expression in BP tumor cells (RT-qPCR, IFNβ ELISA); format: cell-based, mouse; conditions: olaparib two days
Method: Total RNA was extracted using RNeasy® Plus Mini Kit (QIAGEN, #74134). An iScript Reverse Transcription Supermix (Bio-Rad, #1708841) was used for the first-strand cDNA synthesis with 1 μg total RNA. Real-time PCR was performed using SYBR™ Select Master Mix (Thermo Fisher, #4472908) with gene-specific primers (mouse/16, forward 5′-[…]-3′, reverse 5′-[…]-3′; mouse//1b, forward 5′-[…]-3′, reverse 5′-[…]-3′; mouse Cxcl1, forward 5′-[…]-3′, reverse 5′-[…]-3′; mouse Ifnb, forward 5′-[…]-3′, reverse 5′-[…]-3′; mouse Ccl5, forward 5′-[…]-3′, reverse 5′-[…]-3′; mouse Cxcl10, forward 5′-[…]-3′, reverse 5′-[…]-3′; mouse Actb, forward 5′-[…]-3′, reverse 5′-[…]-3′; human IL6, forward 5′-[…]-3′, reverse 5′-[…]-3′; human IL1B, forward 5′-[…]-3′, reverse 5′-[…]-3′; human CXCL1, forward 5′-[…]-3′, reverse 5′-[…]-3′; human GAPDH, forward 5′-[…]-3′, reverse 5′-[…]-3′). Relative mRNA levels were calculated using the […]. Mouse Actb and human GAPDH were used as endogenous controls for mouse and human samples, respectively.
Tumor cells were treated with olaparib or DMSO vehicle control for two days. To assess IFNβ production by tumor cells, cell culture supernatants were harvested and subjected to centrifugation at 1,500×g for 10 min at 4° C. to remove floating cells and debris. IFNβ was then detected via mouse IFNβ ELISA Kit (Thermo Fisher, #424001) according to manufacturer's instructions.

SMILES | proportion of TAMs in ascites (DF86 PDX; FIG. 25H) | M1/M2 ratio in ascites (DF86 PDX; FIG. 25I) | CD14^+ myeloid DCs (CD14^+HLA-DR^+) (DF86 PDX; FIG. 25J) | tumor burden (fold change of intensity of luciferase signal) (DF86 PDX; compared to control or olaparib treated mice, FIG. 25G) | PE tumor growth (PE tumors) | tumor response compared to DF86 PDX tumors (DF101 PDX; FIG. 26) | TAM phenotype in ascites (DF101 PDX; FIG. 26C-E) | proportion of TAMs in ascites (DF101 PDX; FIG. 26C-E) | sensitivity to olaparib in vitro (cell viability) [1] | STAT3-regulated chemokines (CCL2, CX3CL1, CCL20 and CXCL1) in CM (PBM tumor cells) | IFNB, Ccl5 and Cxcl10 in BP-sgSTING cells (BP tumor cells; BP-sgSTING cells, FIG. 11D-F) | pro-inflammatory cytokines (Ifnb, Ccl5 and Cxcl10) in BP tumor cells (BP tumor cells; control medium or naive BMDM-CM, FIG. 6E)
COc1cc2cc(C(=O)CCC(=O)O)sc2cc1OC [MSA-2] | decreased proportion of TAMs | increased M1/M2 ratio | significantly increased | significantly decreased | only modest therapeutic effects | less responsive | reprogramed M2-like TAMs to M1-like | greatly decreased |  |  |  | 
O=C(c1cc(Cc2n[nH]c(=O)c3ccccc23)ccc1F)N1CCN(C(=O)C2CC2)CC1 [olaparib] |  |  |  |  |  |  |  |  | did not affect sensitivity | significantly increased | failed to up-regulate | marked up-regulation
